This is an account of results in paper PMC8596534, “Pyridine substituted BODIPYs: synthesis, characterization and cholinesterease, α-glucosidase inhibitory, DNA hydrolytic cleavage effects” (Turkish Journal of Chemistry, 2021).

For assay [1], the target named is T1, butyrylcholinesterase from equine serum (BuChE) (Equus caballus, UniProt P81908).
T1 construct: butyrylcholinesterase from equine serum (BuChE); from tissue; host or cells: equine serum
The assay is described as follows: BuChE inhibition. The class given is biochemical. An excerpt: (§1) The materials, equipment, AChE, BuChE, α-glucosidase inhibitory, and DNA hydrolytic cleavage actions are given as supplementary information.
(§2) The results were expressed as IC50 and selective index (SI=BuChE/AChE) values.

Assay [2] deals with α-glucosidase from Saccharomyces cerevisiae. The assay is described as follows: α-Glucosidase inhibition. The class given is biochemical.
Description: as §1
The inhibitory properties of the compounds on α-glucosidase were investigated according to our previously reported methods. The results were expressed as IC50 values.

Assay [3] has as its target acetylcholinesterase from Electrophorus electricus (AChE) (Electrophorus electricus, UniProt O42275). The assay is described as follows: biochemical. As to conditions: for SI (BuChE/AChE): selective index = IC50 BuChE/AChE.
Description: as §1, §2

The target in assay [4] is T2, AChE (Electrophorus electricus, UniProt O42275). Briefly: AChE inhibition mechanism (Lineweaver–Burk and Dixon plots). Format: biochemical. As to conditions: for Vmax: substrate acetylthiocholine iodide. An excerpt:
Acetylthiocholine iodide was used as a substrate for AChE inhibition.

Assay [5] addresses T2, AChE. Briefly: Compound-protein binding by UV-Vis spectroscopy. The note with it: AChE 10 µM; BDPY-4 5, 10, 15 and 20 µM. Here is the method: To determine the structural change of AChE (10 µM) induced by BDPY-4, we measured the UV-Vis spectroscopy by adding the compound (5, 10, 15, and 20 µM) into AChE solution (10 µM). AChE has an absorption peak at 282 nm due to aromatic amino acids.

T2 sequence (O42275 24-633): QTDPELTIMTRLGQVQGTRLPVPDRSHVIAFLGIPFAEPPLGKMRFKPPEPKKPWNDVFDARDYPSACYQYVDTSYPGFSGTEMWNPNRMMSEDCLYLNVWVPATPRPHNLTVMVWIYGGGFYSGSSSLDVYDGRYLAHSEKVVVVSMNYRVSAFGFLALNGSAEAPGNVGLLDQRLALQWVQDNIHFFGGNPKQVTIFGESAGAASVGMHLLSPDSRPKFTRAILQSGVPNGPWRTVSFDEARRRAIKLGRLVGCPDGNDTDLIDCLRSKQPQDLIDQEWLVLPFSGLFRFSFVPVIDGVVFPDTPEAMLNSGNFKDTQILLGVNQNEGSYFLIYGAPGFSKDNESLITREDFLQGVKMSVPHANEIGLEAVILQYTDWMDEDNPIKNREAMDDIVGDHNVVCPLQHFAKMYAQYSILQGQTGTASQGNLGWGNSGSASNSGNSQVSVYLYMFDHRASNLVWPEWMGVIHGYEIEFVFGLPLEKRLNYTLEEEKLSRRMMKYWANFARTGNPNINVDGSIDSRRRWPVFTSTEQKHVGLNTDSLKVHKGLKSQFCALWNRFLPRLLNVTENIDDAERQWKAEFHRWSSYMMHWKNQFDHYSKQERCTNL
Sequence of acetylcholinesterase from Electrophorus electricus (AChE) (O42275 24-633): as above
T1 sequence (P81908 whole entry): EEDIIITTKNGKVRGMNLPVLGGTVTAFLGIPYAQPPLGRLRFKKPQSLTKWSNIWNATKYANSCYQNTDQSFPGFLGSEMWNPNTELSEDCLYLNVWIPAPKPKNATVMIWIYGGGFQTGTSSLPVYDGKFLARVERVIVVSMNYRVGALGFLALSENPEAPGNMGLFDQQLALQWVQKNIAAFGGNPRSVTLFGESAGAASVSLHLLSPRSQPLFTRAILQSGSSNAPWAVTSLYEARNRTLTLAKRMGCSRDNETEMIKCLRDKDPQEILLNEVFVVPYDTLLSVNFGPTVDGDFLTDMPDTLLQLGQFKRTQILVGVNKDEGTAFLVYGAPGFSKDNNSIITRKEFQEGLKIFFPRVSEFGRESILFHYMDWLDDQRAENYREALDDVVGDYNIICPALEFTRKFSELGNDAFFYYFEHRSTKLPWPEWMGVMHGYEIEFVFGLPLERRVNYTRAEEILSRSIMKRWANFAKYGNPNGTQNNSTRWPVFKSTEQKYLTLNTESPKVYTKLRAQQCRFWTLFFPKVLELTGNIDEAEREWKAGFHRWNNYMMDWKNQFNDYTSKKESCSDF

For `CC1=CC(C)=[N+]2C1=C(c1ccc(OCCCc3ccncc3)cc1)c1c(C)cc(C)n1[B-]2(F)F` [BDPY-2], the IC50 in assay [1] was 185 ± 5.49 µM; in assay [2], 219 ± 8.71 µM; in assay [3] it was 72.5 ± 2.95 µM. The “SI (BuChE/AChE)” value in assay [3] came to 2.55.

Turning to `CC1=CC(/C=C/c2ccc(OCCCc3ccncc3)cc2)=[N+]2C1=C(c1ccc(OCCCc3ccncc3)cc1)c1c(C)cc(/C=C/c3ccc(OCCCc4ccncc4)cc3)n1[B-]2(F)F` [BDPY-4], the IC50 in assay [1] was 150 ± 6.09 µM; in assay [2], 95 ± 4.77 µM; in assay [3], 54.8 ± 4.51 µM. Further, the Vmax on AChE [4] (50 µM BDPY-4) was 196.08 µM/min; on AChE [4] (100 µM BDPY-4) it was 126.58 µM/min. In addition, the Ki at AChE [4] (Dixon plot, read-out: Ki (inhibition constant)) was 57.2 ± 0.2 µM. In addition, the Inhibitory type entry on AChE [4] (Lineweaver–Burk plot) is listed as “noncompetitive inhibitor”. The “SI (BuChE/AChE)” value in assay [3] stood at 2.74. The “Change of AChE absorbance” value on AChE [5] was “hyperchromism”. Also, at AChE [5], the “Shift of AChE absorption peak” value was “shifted from 282 nm to 285 nm”.

Consider `CC1=CC(/C=C/c2ccc(OCCCc3cccnc3)cc2)=[N+]2C1=C(c1ccc(OCCCc3ccncc3)cc1)c1c(C)cc(/C=C/c3ccc(OCCCc4cccnc4)cc3)n1[B-]2(F)F` [BDPY-5], for which the IC50 in assay [1] came to 170 ± 4.33 µM; in assay [2] it was 106 ± 5.03 µM; in assay [3], 64.9 ± 3.89 µM. Moreover, the “SI (BuChE/AChE)” value in assay [3] is listed as 2.62.
